# Measurements as given in patent US20070249555A1, “Use of Atp Analogues for Treatment of Cardiovascular Diseases” (INSTITUT NATIONAL DE LA SANTE ET DE LA RECHERCHE MEDICALE …, priority 2004, published 2007).
# Legend:
# plain CHO-K1 cells = assay: forskolin-induced cAMP accumulation in plain CHO-K1 cells (control); assay type: cell-based; details: untransfected control cells
# human P2Y12 receptor = human P2Y12 receptor (Homo sapiens, UniProt Q9H244); assay: forskolin-induced cAMP formation in hP2Y12-CHO-K1 cells; assay type: cell-based
# Procedure: FIG. 2C: Effect ADP (▴), AR-C69931MX (●) and ADP in presence of AR-C69931MX (100 nM) (▪) on forskolin (FSK: 3 μM)-induced cAMP formation in hP2Y12-CHO-K1 cells. The cells were incubated with various concentrations of these agents for 12 min. Data are expressed in % of the value with forskolin alone and presented as mean ±S.E.M. of 3 (ADP) or 2 (AR-C69931MX) independent experiments, each performed in triplicates.
# The cyclic AMP assays was performed on CHO-K1 cell lines expressing recombinant P2Y receptors as follows.
# The plasmid of human P2Y12 receptor (hP2Y12-pEFIN5) was obtained from Euroscreen (Gosselies, Belgium) and was stably transfected into CHO-K1 cells by using the FuGENETM6 transfection reagent (Roche Applied Science, Mannheim, Germany). Transfected cells were selected using G418 (400 μg/ml). The hP2Y13-CHO-K1 and HP2Y12-CHO-K1 cells were grown in Ham'S F12 cell culture medium (Invitrogen-France) supplemented with fetal bovine serum (10%, v/v), penicillin (100 units/ml), streptomycin (100 μg/ml) and G418 (400 μg/ml).
# The stably transfected CHO-K1 cells (200,000 cells/dish) were seeded on 35-mm diameter cell culture dishes in complete medium one day before the experiment. […] Cyclic AMP was quantified by 125l radioimmunoassay, as described in Communi et al., J Biol Chem, 2001, 276: 41479-85.
# [1] = system: liver of P2Y1-/- C57BL/6J mice; assay: in situ TG-HDL2 endocytosis by perfused liver of P2Y1-/- mouse; assay type: in vivo; details: liver perfused in situ 10 min at 37° C., AR-C69931MX 10 μM
# Procedure: FIG. 4C: The liver from P2Y1^−/−C57BL/6J male mice (25 weeks old) was perfused in situ for 10 minutes at 37° C. in HBSS medium with 75 μg/ml of ^125I-TG-HDL2 in the presence of PBS (a) or AR-C69931MX 10 μM (b). ^125I radioactivity associated with the livers was determined (n>3); (*) (p<0.05) (unpaired t-test).
# The perfused mouse liver experiments were carried out on C57BL/6J male mice, 8 weeks old, (Charles River Cie) or P2Y1^−/− mouse, 25 weeks old. Mouse were anesthetized by intraperitoneal injections of 200 μl ketamine hydrochloride (Merial)-xylazine hydrochloride 2% (Bayer)-PBS (1:1:3 v/v). […] The livers were perfused in situ for 10 minutes at 37° C. in HBSS medium containing 75 μg/ml of ^125I-TG-HDL2 (5000 cpm/ng of proteins) or ^3H-cholesteryl-ether-TG-HDL2 (15000 dpm/mg of cholesteryl ester), with PBS apolipoprotein A-1 (ApoA-1, 10 μg/ml) or AR-C69931MX (10 μM).
# Livers were extensively washed at 4° C. in PBS and radioactivity associated per […] of liver was counted, (n=7 per group). Values represent means ±SEM, with p<0.05 (unpaired t-test).
# Sequence of human P2Y12 receptor (Q9H244 whole entry, the tested form may be a part): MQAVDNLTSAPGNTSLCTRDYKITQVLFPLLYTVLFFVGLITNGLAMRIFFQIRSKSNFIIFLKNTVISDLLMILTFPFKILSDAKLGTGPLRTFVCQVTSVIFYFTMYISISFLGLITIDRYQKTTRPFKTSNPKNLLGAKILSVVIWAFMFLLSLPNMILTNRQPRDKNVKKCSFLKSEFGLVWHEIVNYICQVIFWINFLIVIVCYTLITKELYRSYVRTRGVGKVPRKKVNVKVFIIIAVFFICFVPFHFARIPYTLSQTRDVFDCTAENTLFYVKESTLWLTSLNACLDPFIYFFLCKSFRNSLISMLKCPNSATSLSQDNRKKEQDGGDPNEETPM
smiles,measurement,setting,value
"CSCCNc1nc(SCCC(F)(F)F)nc2c1ncn2[C@@H]1O[C@H](COP(=O)(O)OP(=O)(O)C(Cl)(Cl)P(=O)(O)O)[C@@H](O)[C@H]1O [AR-C69931MX, N-[2-(methylthio)ethyl]-2-[(3,3,3-trifluoropropyl)thio]-5′-adenylic acid, monoanhydride with dichloromethylenebisphosphonic acid]",effect on cAMP accumulation in plain CHO-K1 cells,plain CHO-K1 cells,no effect
same,effect on ADP inhibition of cAMP accumulation,human P2Y12 receptor; AR-C69931MX 100 nM with ADP,shifted the ADP inhibition to higher concentrations
same,effect per se on cAMP accumulation by forskolin,"human P2Y12 receptor; forskolin 3 μM, 12 min",no effect
same,increase of TG-HDL2 internalization by the liver above the control,[1],38%
